Results on five molecules are retold here after US12703728B2, “Interleukin 29 mutant protein” (priority 2020, dated 2026).

The test system of series [1] is respiratory syncytial virus. In words: In vitro efficacy on RSV-infected human bronchial epithelial cells (HBEC). The class given is cell-based. The settings on record: for Average inhibition rate (%): HBEC, RSV. The method, then:
RSV with a titer of 100, TCID50 (half of the infective dose of tissue culture) was added to each of the activity test wells, culturing the cells in 37° C. and 5% CO2 incubator for 3 days, then RSV RNA was extracted from the cells by using the RNA Extraction Kit (Catlog: 74181, Qiagen), and quantified by RT-qPCR.

For a further series, the system named is Vero cells. In words: Toxic effects on Vero cells by CCK-8 assay. The following applies: 50 μmol/L and below, 48 h, CCK-8.
Series [2] is described as follows: Toxic effects on Vero cells by CCK-8 assay. The settings on record: African green monkey, Vero cells. On the technique in general: Formazan colour is commonly taken as a measure of viable cells.
The test system of the next series is novel coronavirus. The experiment in a line: organism not typed. The class given is cell-based, African green monkey.
A further series deals with HEK293-ISRE-Luc cells. The class given is cell-based. The following applies: for EC50: HEK293-ISRE-Luc reporter gene method; for EC50/biological activity as compared with IL29 control (in words): reporter gene method. The source says: The reporter gene method refers to ligating the promoter of interferon-stimulated response element (ISRE) to alkaline phosphatase cDNA, and transfecting them into HEK293 cells, and evaluating IL29 activity by measuring alkaline phosphatase in supernatant of HEK293 cells after IL29 stimulation (LaFleur D W, Nardelli B, Tsareva T Et al. Interferon-kappa, a novel type I interferon expressed in human keratinocytes. [J]. J. Biol. Chem., 2001, 276:39765-71).
HEK293-ISRE-Luc cells (purchased from National institutes for Food and Drug Control) were allowed to grow adherently in complete culture medium. The cells were passaged at a ratio of 1:4, 2-3 times per week, growing in complete culture medium. The cultured cells were taken to discard the culture medium, and the cells were washed once with PBS and then digested and collected; and the cell suspension containing 3.5×10^5 to 4.5×10^5 cells per 1 ml was prepared with assay culture medium (BIBCO).
A general note: Reporter assays use an easily measured gene product as a stand-in for the process of interest.

Series [3] in a line: Stability of IL29 mutants at 50° C. The settings on record: 50° C./75% relative humidity; for Reduction on Day 14 as compared with Point 0 (%): reversed-phase HPLC main peak. The format is physicochemical. The method, then: (§1) The mobile phase A (acetonitrile:water:trifluoroacetic acid, in the volume ratio of 20:80:0.1) and the mobile phase B (acetonitrile:water:isopropanol:trifluoroacetic acid, in the volume ratio of 70:20:10:0.1) were prepared; and a chromatographic column (XBridge BEH C18 Column, 130A, 5 μm, 4.6 mm*100 mm) was used to analyze each test sample of proteins. The analytical conditions were as follows: flow rate 1.0 ml/min, acquisition time: 65 min, acquisition wavelength 214 nm, column temperature 45° C., and elution gradient as shown in Table 1 below.
Two injections of stock solution of a test sample were loaded in parallel, and the loading volume was set as15 μg-20 μg according to the sample concentration; finally, the purity of the main peak of the test sample was calculated by integrating according to the area normalization method.
The details are shown in Table 5, while the purity values at day 0 and 14 in Table 5 were used to make contrast chromatogram, as shown in FIGS. 3-10.

A short description of series [4]: Stability of IL29 mutants at 50° C. The class given is physicochemical. The settings on record: 50° C./75% relative humidity, reporter gene method.
Series [5] is classed as physicochemical. The following applies: 25° C./60% relative humidity/5000 lux. On the procedure:
as §1
The mobile phase A (25 mmol/L phosphate buffer, pH 7.0) and mobile phase B (25 mmol/L phosphate buffer, 0.5 mol/L sodium chloride, pH 6.7) were prepared, and a chromatographic column (Thermo ProPac WCX-10 4.0*250 mm) was used to analyze each test sample of proteins. The analytical conditions were as follows: flow rate 0.8 ml/min, acquisition time: 55 min, acquisition wavelength 214 nm, column temperature 25° C., and elution gradient as shown in Table 2 below.
The stability of IL29 mutants was detected under the condition 25° C.±2° C./60% relative humidity ±5% relative humidity/5000±500 lux, samples were taken according to Table 6, and the same method in Example 2 was used to detect the stability of IL29 mutants.

The nature of series [6]: Nebulization stability test.
Method: A jet nebulizer of PARI LCD type and TurboBOY N nebulizer pump from Germany were used for nebulization tests. 2 ml of sample was nebulized, and aerosol was collected in the manner below according to FIG. 11; as for the collected sample, the purity of each test sample of IL29 mutants was detected according to the same method as in Example 2.2.1 by reversed-phase high performance liquid phase, thereby verifying the nebulization stability of each mutant.
Setting [7] is: Positive control group, 0.03 μM.

What is called EC50 is the concentration needed to bring the measured effect to its halfway point. By CC50 is commonly meant the concentration at which the toxic effect on the cells reaches its halfway point. High values mean lower toxicity to the cells, low ones greater toxicity to the cells. What is called inhibition is the relative decrease from the control value, in per cent. As a reminder, the IC50 is the concentration that gives 50% inhibition. A high value points to weaker potency in that assay.

Where a chain is given by its changes, count along the chain named. Like-named read-outs stand apart in the source and are kept apart here.

`O=c1n(Cc2nc3ccccc3n2CCCCO)c2cnccc2n1C1CC1` [BMS-433771]: a half-maximal response in [1] (HBEC cell model, RSV RNA by RT-qPCR) (EC50) required 213 nM. For the same molecule, the “Average inhibition rate (%)” value in [1] (10 nM) was 31.65%; in series [1] (50 nM) it was 29.30%; in [1] (250 nM), 85.31%; in series [1] (1250 nM) it was 97.91%.
`CCC(CC)COC(=O)[C@H](C)N[P@](=O)(OC[C@H]1O[C@@](C#N)(c2ccc3c(N)ncnn23)[C@H](O)[C@@H]1O)Oc1ccccc1` [Remdesivir]: in the series on Vero cells, the “toxic effect on Vero cells” value was “no obvious toxic effect”. Besides, the CC50 at 48 h in series [2] is more than 50 µM. The “Ct Value 1” value with novel coronavirus (setting [7]) worked out at 17.05; in the series with novel coronavirus (Positive control group, 0.1 μM), 17.63; in the series on novel coronavirus (Positive control group, 0.3 μM), 20.83; with novel coronavirus (Positive control group, 1 μM), 27.63; in the series with novel coronavirus (Positive control group, 3 μM) it was 30.57; in the series with novel coronavirus (Positive control group, 10 μM), 34.85. In addition, the “Ct Value 2” value in the series with novel coronavirus (setting [7]) was 16.86; in the series with novel coronavirus (Positive control group, 0.1 μM), 17.75; in the series with novel coronavirus (Positive control group, 0.3 μM), 20.76; with novel coronavirus (Positive control group, 1 μM) it was 26.97; in the series with novel coronavirus (Positive control group, 3 μM), 33.96; with novel coronavirus (Positive control group, 10 μM), 33.56. Moreover, the “Ct Value 3” value was 17.71 in the series with novel coronavirus (setting [7]); 17.57 in the series with novel coronavirus (Positive control group, 0.1 μM); 19.75 in the series on novel coronavirus (Positive control group, 0.3 μM); 26.91 in the series on novel coronavirus (Positive control group, 1 μM); 33.11 in the series on novel coronavirus (Positive control group, 3 μM); 34.75 in the series with novel coronavirus (Positive control group, 10 μM). The “Ct Value Mean” value in the series with novel coronavirus (setting [7]) is recorded as 17.21; in the series with novel coronavirus (Positive control group, 0.1 μM), 17.65; in the series with novel coronavirus (Positive control group, 0.3 μM) it was 20.45; with novel coronavirus (Positive control group, 1 μM), 27.17; in the series with novel coronavirus (Positive control group, 3 μM), 32.55; in the series with novel coronavirus (Positive control group, 10 μM), 34.39. In addition, the inhibition at 0.03 µM in the series on novel coronavirus (Vero, Positive control group, 0.03 μM, read-out: Average inhibition rate (%)) is 17.5%. Besides, in the series on novel coronavirus (Vero, Positive control group, 0.1 μM, read-out: Average inhibition rate (%)), the inhibition at 0.1 µM is 39.3%. In addition, in the series with novel coronavirus (Vero, Positive control group, 0.3 μM, read-out: Average inhibition rate (%)), the inhibition at 0.3 µM was 91.3%. The inhibition at 1 µM in the series on novel coronavirus (Vero, Positive control group, 1 μM, read-out: Average inhibition rate (%)) stood at 99.9%. In addition, the inhibition at 3 µM in the series with novel coronavirus (Vero, Positive control group, 3 μM, read-out: Average inhibition rate (%)) was 100%. For the same molecule, the inhibition at 10 µM with novel coronavirus (Vero, Positive control group, 10 μM, read-out: Average inhibition rate (%)) is 100%. The molecule also registered an IC50 in the series on novel coronavirus (Vero, positive control group) of 120 nM. Moreover, in the series with novel coronavirus (positive control group, concentrations of 0.3 µM and above), the “inhibition against the virus” value is listed as not below 90%.

B1: IL29DE (protein)
chain: MKPTTTGKGCHIGRFKSLSPQELASFKKARDALEESLKLKNWSCSSPVFPGNWDLRLLQVRERPVALEAELALTLKVLEAAAGPALEDVLDQPLHTLHHILSQLQACIQPQPTAGPRPRGRLHHWLHRLQEAPKKESAGCLEASVTFNLFRLLTRDLKYVAEGNLCLRTSTHPEST
B1: in the series with HEK293-ISRE-Luc cells, the “Relative biological activity (%)” value came out at 282%, the “EC50” value was 1.697 ng/mL and the “EC50/biological activity as compared with IL29 control (in words)” value is “increased by nearly three times”. For the same molecule, in [3] (Day 7), the “Main peak (%), reversed-phase HPLC purity” value (“Main peak (%)” below) is recorded as 89.35%. Further, in series [3] (Day 14), the “Main peak (%)” value was 77.39%. The “Main peak (%)” value in [3] (Point 0) is 92.68%. Further, in [3], the “Reduction on Day 14 as compared with Point 0 (%)” value (shortened to “Reduction … (%)”) was determined as 15.29%. Also, the “biological activity in 14 days at 50° C.” value in [4] was “basically unchanged”.

B2: IL29CS (protein)
chain: B1 chain with E162D, C166S
On to B2, for which the “EC50” value in the series on HEK293-ISRE-Luc cells was determined as 4.639 ng/mL. The “EC50/biological activity as compared with IL29 control (in words)” value with HEK293-ISRE-Luc cells is “essentially no change”. Moreover, the “Main peak (%)” value in series [3] (Day 7) was 64.66%; in series [3] (Day 14), 46.20%; in series [3] (Point 0) it was 97.03%. Further, the “Reduction … (%)” value in series [3] is on record as 50.83%. The “Ion exchange purity (%)” value in [5] (day 0) worked out at 97.00%; in [5] (day 5), 89.28%; in series [5] (day 10) it was 77.14%. Moreover, the “Reversed-phase HPLC purity (%)” value in series [5] (day 0) came to 95.361%; in [5] (day 5), 90.756%; in series [5] (day 10), 84.30%. Moreover, the “Reverse-phase purity After nebulization” value in [6] came out at 85.26%. In series [6] (jet nebulizer, 2 ml sample), the “Reverse-phase purity Before nebulization” value is recorded as 96.65%. Moreover, the “Difference between purity before and after nebulization” value in series [6] (reverse-phase purity) worked out at 10.39%.

B3: IL29 control: IL29 wild-type protein, amino acid sequence SEQ ID NO: 1 with an additional M amino acid at the N-terminal (protein)
chain: KPTTTGKGCHIGRFKSLSPQELASFKKARDALEESLKLKNWSCSSPVFPGNWDLRLLQVRERPVALEAELALTLKVLEAAAGPALEDVLDQPLHTLHHILSQLQACIQPQPTAGPRPRGRLHHWLHRLQEAPKKESAGCLEASVTFNLFRLLTRDLKYVADGNLCLRTSTHPEST
modifications: additional N-terminal Met
Turning to B3, the “EC50” value in the series with HEK293-ISRE-Luc cells is 4.783 ng/mL. In addition, the “Main peak (%)” value in series [3] (Day 7) came out at 56.70%; in series [3] (Day 14) it was 34.46%; in series [3] (Point 0) it was 85.82%. The “Reduction … (%)” value in series [3] worked out at 51.36%.
